Measurements published in ChEMBL document CHEMBL5500364, “Design, synthesis, and biological evaluation of some 2-(3-oxo-5,6-diphenyl-1,2,4-triazin-2(3H)-yl)-N-phenylacetamide hybrids as MTDLs for Alzheimer's disease therapy” (Eur J Med Chem, 2024).
The source made the active and inactive calls. The calls are words filed in the database; no cut-off is given here.

biological target: Acetylcholinesterase (Homo sapiens, UniProt P22303); assay: Inhibition of human erythrocyte AChE using acetylthiocholine iodide as substrate preincubated for 30 mins followed by substrate addition by DTNB based Ellman's colorimetric method; conditions: not given
Sequence (P22303 whole entry): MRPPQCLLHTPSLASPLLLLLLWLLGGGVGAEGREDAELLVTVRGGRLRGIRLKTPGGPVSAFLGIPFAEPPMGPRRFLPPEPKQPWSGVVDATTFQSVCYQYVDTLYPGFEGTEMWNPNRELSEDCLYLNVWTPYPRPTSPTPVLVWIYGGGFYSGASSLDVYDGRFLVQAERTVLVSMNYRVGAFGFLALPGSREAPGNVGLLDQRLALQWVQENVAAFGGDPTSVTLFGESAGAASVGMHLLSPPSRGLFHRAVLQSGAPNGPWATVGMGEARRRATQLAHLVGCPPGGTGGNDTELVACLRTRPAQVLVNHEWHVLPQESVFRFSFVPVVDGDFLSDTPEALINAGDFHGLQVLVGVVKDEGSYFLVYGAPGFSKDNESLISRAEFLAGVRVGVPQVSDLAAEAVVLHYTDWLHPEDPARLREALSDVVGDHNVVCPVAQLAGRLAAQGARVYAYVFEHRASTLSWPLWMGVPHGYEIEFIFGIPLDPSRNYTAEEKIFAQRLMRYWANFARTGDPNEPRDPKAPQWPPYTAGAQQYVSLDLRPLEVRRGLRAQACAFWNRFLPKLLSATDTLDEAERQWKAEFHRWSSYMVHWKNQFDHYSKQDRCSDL

Row | SMILES | IC50
1 | N#Cc1cccc(NC(=O)Cn2nc(-c3ccccc3)c(-c3ccccc3)nc2=O)c1 | 1250 nM
2 | O=C(Cn1nc(-c2ccccc2)c(-c2ccccc2)nc1=O)Nc1ccc(Br)cc1 | 941 nM
3 | O=C(Cn1nc(-c2ccccc2)c(-c2ccccc2)nc1=O)Nc1ccc(F)cc1 | 836 nM
4 | O=C(Cn1nc(-c2ccccc2)c(-c2ccccc2)nc1=O)Nc1ccc(Cl)cc1 | 1410 nM
5 | O=C(Cn1nc(-c2ccccc2)c(-c2ccccc2)nc1=O)Nc1ccc(F)cc1F | 1160 nM
6 | O=C(Cn1nc(-c2ccccc2)c(-c2ccccc2)nc1=O)Nc1cccc(Cl)c1 | 1160 nM
7 | O=C(Cn1nc(-c2ccccc2)c(-c2ccccc2)nc1=O)Nc1ccc([N+](=O)[O-])cc1 | 1070 nM
8 | O=C(Cn1nc(-c2ccccc2)c(-c2ccccc2)nc1=O)Nc1ccc(O)cc1 | 1150 nM
9 | O=C(Cn1nc(-c2ccccc2)c(-c2ccccc2)nc1=O)Nc1ccccc1Cl | 719 nM
10 | N#Cc1ccccc1NC(=O)Cn1nc(-c2ccccc2)c(-c2ccccc2)nc1=O | 1860 nM
11 | O=C(Cn1nc(-c2ccccc2)c(-c2ccccc2)nc1=O)Nc1cccc([N+](=O)[O-])c1 | 1120 nM
12 | COc1cc(NC(=O)Cn2nc(-c3ccccc3)c(-c3ccccc3)nc2=O)cc(OC)c1OC | 708 nM
13 | O=C(Cn1nc(-c2ccccc2)c(-c2ccccc2)nc1=O)Nc1ccccc1O | 753 nM
14 | O=C(Cn1nc(-c2ccccc2)c(-c2ccccc2)nc1=O)Nc1ccccc1[N+](=O)[O-] | 734 nM
15 | Cc1ccccc1NC(=O)Cn1nc(-c2ccccc2)c(-c2ccccc2)nc1=O | 953 nM
16 | O=C(Cn1nc(-c2ccccc2)c(-c2ccccc2)nc1=O)Nc1cc(Br)cc(Br)c1 | 772 nM
17 | O=C(Cn1nc(-c2ccccc2)c(-c2ccccc2)nc1=O)Nc1ccc([N+](=O)[O-])cc1Cl | 699 nM

biological target: Cholinesterase (Homo sapiens, UniProt P06276); assay: Inhibition of human BChE using butyrylthiocholine iodide as substrate preincubated for 30 mins followed by substrate addition by DTNB based Ellman's colorimetric method; conditions: not given
Sequence (P06276 whole entry): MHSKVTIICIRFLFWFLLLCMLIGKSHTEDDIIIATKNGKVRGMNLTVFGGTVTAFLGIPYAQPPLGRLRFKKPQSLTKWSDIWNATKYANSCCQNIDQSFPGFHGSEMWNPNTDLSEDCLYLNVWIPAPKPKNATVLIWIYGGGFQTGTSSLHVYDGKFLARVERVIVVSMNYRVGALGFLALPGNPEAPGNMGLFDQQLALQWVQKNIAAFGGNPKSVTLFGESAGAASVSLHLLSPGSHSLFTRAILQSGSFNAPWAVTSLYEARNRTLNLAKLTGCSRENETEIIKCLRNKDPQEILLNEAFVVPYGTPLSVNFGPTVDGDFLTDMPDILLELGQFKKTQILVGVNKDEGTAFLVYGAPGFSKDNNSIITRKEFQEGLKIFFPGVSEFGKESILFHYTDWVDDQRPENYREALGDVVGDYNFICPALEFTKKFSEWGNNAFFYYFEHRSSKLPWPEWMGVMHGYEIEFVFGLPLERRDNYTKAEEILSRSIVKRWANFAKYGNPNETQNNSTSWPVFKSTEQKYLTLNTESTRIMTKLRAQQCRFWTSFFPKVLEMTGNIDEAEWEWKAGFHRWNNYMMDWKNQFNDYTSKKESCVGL

Row | SMILES | IC50
18 | N#Cc1cccc(NC(=O)Cn2nc(-c3ccccc3)c(-c3ccccc3)nc2=O)c1 | > 10 µM
19 | O=C(Cn1nc(-c2ccccc2)c(-c2ccccc2)nc1=O)Nc1ccc(Br)cc1 | > 10 µM
20 | O=C(Cn1nc(-c2ccccc2)c(-c2ccccc2)nc1=O)Nc1ccc(F)cc1 | > 10 µM
21 | O=C(Cn1nc(-c2ccccc2)c(-c2ccccc2)nc1=O)Nc1ccc(Cl)cc1 | > 10 µM
22 | O=C(Cn1nc(-c2ccccc2)c(-c2ccccc2)nc1=O)Nc1ccc(F)cc1F | > 10 µM
23 | O=C(Cn1nc(-c2ccccc2)c(-c2ccccc2)nc1=O)Nc1cccc(Cl)c1 | > 10 µM
24 | O=C(Cn1nc(-c2ccccc2)c(-c2ccccc2)nc1=O)Nc1ccc([N+](=O)[O-])cc1 | > 10 µM
25 | O=C(Cn1nc(-c2ccccc2)c(-c2ccccc2)nc1=O)Nc1ccc(O)cc1 | > 10 µM
26 | O=C(Cn1nc(-c2ccccc2)c(-c2ccccc2)nc1=O)Nc1ccccc1Cl | > 10 µM
27 | N#Cc1ccccc1NC(=O)Cn1nc(-c2ccccc2)c(-c2ccccc2)nc1=O | > 10 µM
28 | O=C(Cn1nc(-c2ccccc2)c(-c2ccccc2)nc1=O)Nc1cccc([N+](=O)[O-])c1 | > 10 µM
29 | COc1cc(NC(=O)Cn2nc(-c3ccccc3)c(-c3ccccc3)nc2=O)cc(OC)c1OC | > 10 µM
30 | O=C(Cn1nc(-c2ccccc2)c(-c2ccccc2)nc1=O)Nc1ccccc1O | > 10 µM
31 | O=C(Cn1nc(-c2ccccc2)c(-c2ccccc2)nc1=O)Nc1ccccc1[N+](=O)[O-] | > 10 µM
32 | Cc1ccccc1NC(=O)Cn1nc(-c2ccccc2)c(-c2ccccc2)nc1=O | > 10 µM
33 | O=C(Cn1nc(-c2ccccc2)c(-c2ccccc2)nc1=O)Nc1cc(Br)cc(Br)c1 | > 10 µM
34 | O=C(Cn1nc(-c2ccccc2)c(-c2ccccc2)nc1=O)Nc1ccc([N+](=O)[O-])cc1Cl | > 10 µM

biological target: Dual specificity tyrosine-phosphorylation-regulated kinase 1A (Homo sapiens, UniProt Q13627); assay: Inhibition of Dyrk1A (unknown origin) incubated for 1 hrs in presence of [gamma-33P]-ATP by microplate scintillation counter based radiometric protein kinase assay; conditions: not given

Row | SMILES | IC50
35 | N#Cc1cccc(NC(=O)Cn2nc(-c3ccccc3)c(-c3ccccc3)nc2=O)c1 | > 10 µM
36 | O=C(Cn1nc(-c2ccccc2)c(-c2ccccc2)nc1=O)Nc1ccc(Br)cc1 | > 10 µM
37 | O=C(Cn1nc(-c2ccccc2)c(-c2ccccc2)nc1=O)Nc1ccc(F)cc1 | > 10 µM
38 | O=C(Cn1nc(-c2ccccc2)c(-c2ccccc2)nc1=O)Nc1ccc(Cl)cc1 | > 10 µM
39 | O=C(Cn1nc(-c2ccccc2)c(-c2ccccc2)nc1=O)Nc1ccc(F)cc1F | > 10 µM
40 | O=C(Cn1nc(-c2ccccc2)c(-c2ccccc2)nc1=O)Nc1cccc(Cl)c1 | > 10 µM
41 | O=C(Cn1nc(-c2ccccc2)c(-c2ccccc2)nc1=O)Nc1ccc([N+](=O)[O-])cc1 | > 10 µM
42 | O=C(Cn1nc(-c2ccccc2)c(-c2ccccc2)nc1=O)Nc1ccc(O)cc1 | > 10 µM
43 | O=C(Cn1nc(-c2ccccc2)c(-c2ccccc2)nc1=O)Nc1ccccc1Cl | > 10 µM
44 | N#Cc1ccccc1NC(=O)Cn1nc(-c2ccccc2)c(-c2ccccc2)nc1=O | > 10 µM
45 | O=C(Cn1nc(-c2ccccc2)c(-c2ccccc2)nc1=O)Nc1cccc([N+](=O)[O-])c1 | > 10 µM
46 | COc1cc(NC(=O)Cn2nc(-c3ccccc3)c(-c3ccccc3)nc2=O)cc(OC)c1OC | > 10 µM
47 | O=C(Cn1nc(-c2ccccc2)c(-c2ccccc2)nc1=O)Nc1ccccc1O | > 10 µM
48 | O=C(Cn1nc(-c2ccccc2)c(-c2ccccc2)nc1=O)Nc1ccccc1[N+](=O)[O-] | > 10 µM
49 | Cc1ccccc1NC(=O)Cn1nc(-c2ccccc2)c(-c2ccccc2)nc1=O | > 10 µM
50 | O=C(Cn1nc(-c2ccccc2)c(-c2ccccc2)nc1=O)Nc1cc(Br)cc(Br)c1 | > 10 µM
51 | O=C(Cn1nc(-c2ccccc2)c(-c2ccccc2)nc1=O)Nc1ccc([N+](=O)[O-])cc1Cl | 2 µM

biological target: Beta-secretase 1 (Homo sapiens, UniProt P56817); assay: Inhibition of human BACE-1 using (7-Methoxycoumarin-4-acetyl-[Asn670, Leu671]-Amyloid beta/A4 precursor protein 770 fragments 667-676- (2, 4-dinitrophenyl) Lys-Arg-Arg amide trifluoroacetate salt as substrate incubated for 2 hrs by FRET-based analysis; conditions: not given
Sequence (P56817 whole entry, the tested form may be a part): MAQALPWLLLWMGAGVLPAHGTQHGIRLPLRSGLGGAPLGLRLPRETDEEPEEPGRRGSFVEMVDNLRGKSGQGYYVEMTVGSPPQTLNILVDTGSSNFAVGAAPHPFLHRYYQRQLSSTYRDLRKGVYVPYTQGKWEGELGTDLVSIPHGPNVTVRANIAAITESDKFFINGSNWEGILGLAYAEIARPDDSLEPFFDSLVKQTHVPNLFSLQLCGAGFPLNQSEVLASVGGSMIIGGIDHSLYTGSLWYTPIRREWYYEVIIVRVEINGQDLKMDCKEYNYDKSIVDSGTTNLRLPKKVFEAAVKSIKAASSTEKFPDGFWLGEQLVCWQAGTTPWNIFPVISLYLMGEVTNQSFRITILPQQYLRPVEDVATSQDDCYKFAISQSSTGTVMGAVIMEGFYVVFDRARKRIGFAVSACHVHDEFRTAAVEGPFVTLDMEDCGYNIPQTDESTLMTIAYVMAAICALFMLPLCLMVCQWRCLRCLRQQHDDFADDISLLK

Row | SMILES | IC50
52 | N#Cc1cccc(NC(=O)Cn2nc(-c3ccccc3)c(-c3ccccc3)nc2=O)c1 | 1100 nM
53 | O=C(Cn1nc(-c2ccccc2)c(-c2ccccc2)nc1=O)Nc1ccc(Br)cc1 | 1860 nM
54 | O=C(Cn1nc(-c2ccccc2)c(-c2ccccc2)nc1=O)Nc1ccc(F)cc1 | 694 nM
55 | O=C(Cn1nc(-c2ccccc2)c(-c2ccccc2)nc1=O)Nc1ccc(Cl)cc1 | 1930 nM
56 | O=C(Cn1nc(-c2ccccc2)c(-c2ccccc2)nc1=O)Nc1ccc(F)cc1F | 1440 nM
57 | O=C(Cn1nc(-c2ccccc2)c(-c2ccccc2)nc1=O)Nc1cccc(Cl)c1 | 1440 nM
58 | O=C(Cn1nc(-c2ccccc2)c(-c2ccccc2)nc1=O)Nc1ccc([N+](=O)[O-])cc1 | 1320 nM
59 | O=C(Cn1nc(-c2ccccc2)c(-c2ccccc2)nc1=O)Nc1ccc(O)cc1 | 1620 nM
60 | O=C(Cn1nc(-c2ccccc2)c(-c2ccccc2)nc1=O)Nc1ccccc1Cl | 609 nM
61 | N#Cc1ccccc1NC(=O)Cn1nc(-c2ccccc2)c(-c2ccccc2)nc1=O | 1480 nM
62 | O=C(Cn1nc(-c2ccccc2)c(-c2ccccc2)nc1=O)Nc1cccc([N+](=O)[O-])c1 | 1250 nM
63 | COc1cc(NC(=O)Cn2nc(-c3ccccc3)c(-c3ccccc3)nc2=O)cc(OC)c1OC | 648 nM
64 | O=C(Cn1nc(-c2ccccc2)c(-c2ccccc2)nc1=O)Nc1ccccc1O | 953 nM
65 | O=C(Cn1nc(-c2ccccc2)c(-c2ccccc2)nc1=O)Nc1ccccc1[N+](=O)[O-] | 912 nM
66 | Cc1ccccc1NC(=O)Cn1nc(-c2ccccc2)c(-c2ccccc2)nc1=O | 742 nM
67 | O=C(Cn1nc(-c2ccccc2)c(-c2ccccc2)nc1=O)Nc1cc(Br)cc(Br)c1 | 1250 nM
68 | O=C(Cn1nc(-c2ccccc2)c(-c2ccccc2)nc1=O)Nc1ccc([N+](=O)[O-])cc1Cl | 1830 nM

system: not listed separately; assay: Permeability of compound in PBS at pH 7.4 incubated for 18 hrs by PAMPA-BBB assay; conditions: not given

Row | SMILES | Papp at 18 h
69 | COc1cc(NC(=O)Cn2nc(-c3ccccc3)c(-c3ccccc3)nc2=O)cc(OC)c1OC | 5.81 ×10⁻⁶ cm/s

system: not listed separately; assay: Neurotoxicity in human SH-SY5Y cells assessed as reduction in cell population at 80 uM incubated for 24 hrs by MTT assay; conditions: not given

Row | SMILES | Activity
70 | COc1cc(NC(=O)Cn2nc(-c3ccccc3)c(-c3ccccc3)nc2=O)cc(OC)c1OC | Non-Toxic

system: SH-SY5Y; assay: Neuroprotective activity against amyloid-beta(1 to 42) induced oxidative stress in differentiated human SH-SY5Y cells assessed as increase in cell viability at 40 uM preincubated with amyloid-beta (1 to 42 ) for 24 hrs followed by compound addition and measured after 48 hrs by MTT assay relative to control; assay type: functional; conditions: not given

Row | SMILES | Activity
71 | COc1cc(NC(=O)Cn2nc(-c3ccccc3)c(-c3ccccc3)nc2=O)cc(OC)c1OC | 71%

system: SH-SY5Y; assay: Neuroprotective activity against amyloid-beta(1 to 42) induced oxidative stress in differentiated human SH-SY5Y cells assessed as increase in cell viability at 40 uM preincubated with amyloid-beta (1 to 42 ) for 24 hrs followed by compound addition and measured after 72 hrs by MTT assay relative to control; assay type: functional; conditions: not given

Row | SMILES | Activity
72 | COc1cc(NC(=O)Cn2nc(-c3ccccc3)c(-c3ccccc3)nc2=O)cc(OC)c1OC | 78%

biological target: Amyloid-beta precursor protein (Homo sapiens) (UniProt P05067); assay: Inhibition of amyloid beta (1 to 42) (unknown origin) self aggregation ar 5 to 20 uM incubated for 48 hrs by Thioflavin T fluorescence assay relative to control; conditions: dose 5-20 µM
Sequence (P05067 whole entry): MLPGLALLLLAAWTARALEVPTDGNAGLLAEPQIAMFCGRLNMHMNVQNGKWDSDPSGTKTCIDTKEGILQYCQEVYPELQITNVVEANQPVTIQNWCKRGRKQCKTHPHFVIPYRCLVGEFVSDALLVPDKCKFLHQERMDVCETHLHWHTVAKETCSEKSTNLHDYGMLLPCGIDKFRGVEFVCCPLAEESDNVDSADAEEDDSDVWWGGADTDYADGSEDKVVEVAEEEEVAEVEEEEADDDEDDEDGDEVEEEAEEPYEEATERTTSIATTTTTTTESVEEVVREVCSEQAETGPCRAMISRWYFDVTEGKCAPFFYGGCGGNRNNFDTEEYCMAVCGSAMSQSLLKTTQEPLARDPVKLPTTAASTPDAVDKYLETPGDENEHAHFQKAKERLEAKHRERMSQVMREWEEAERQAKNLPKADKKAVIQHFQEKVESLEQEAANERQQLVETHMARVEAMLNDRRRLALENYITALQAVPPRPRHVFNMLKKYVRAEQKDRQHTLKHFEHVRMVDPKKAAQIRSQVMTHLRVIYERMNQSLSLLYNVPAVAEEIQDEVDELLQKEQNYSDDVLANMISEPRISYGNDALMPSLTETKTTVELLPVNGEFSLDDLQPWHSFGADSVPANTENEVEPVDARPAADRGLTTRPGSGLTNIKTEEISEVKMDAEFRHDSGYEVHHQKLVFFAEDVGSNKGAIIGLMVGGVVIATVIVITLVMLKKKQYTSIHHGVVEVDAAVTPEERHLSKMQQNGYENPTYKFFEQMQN

Row | SMILES | inhibition
73 | COc1cc(/C=C/C(=O)CC(=O)/C=C/c2ccc(O)c(OC)c2)ccc1O | 21.5%
74 | COc1cc(NC(=O)Cn2nc(-c3ccccc3)c(-c3ccccc3)nc2=O)cc(OC)c1OC | 19.3%

biological target: Amyloid-beta precursor protein (Homo sapiens) (UniProt P05067); assay: Inhibition of human AchE-induced amyloid beta (1 to 42) (unknown origin) aggregation at 5 to 20 uM incubated for 48 hrs by Thioflavin T fluorescence assay relative to control; conditions: dose 5-20 µM

Row | SMILES | inhibition
75 | COc1cc(NC(=O)Cn2nc(-c3ccccc3)c(-c3ccccc3)nc2=O)cc(OC)c1OC | 33.6%

biological target: Amyloid-beta precursor protein (Homo sapiens) (UniProt P05067); assay: Inhibition of amyloid beta (1 to 42) (unknown origin) aggregation assessed as maximum peak height of aggregates incubated for 48 hrs by AFM analysis; conditions: not given

Row | SMILES | Activity
76 | COc1cc(/C=C/C(=O)CC(=O)/C=C/c2ccc(O)c(OC)c2)ccc1O | 206 nm

biological target: Amyloid-beta precursor protein (Homo sapiens) (UniProt P05067); assay: Inhibition of amyloid beta (1 to 42) (unknown origin) aggregation assessed as reduction in amyloid-beta aggregates at 50 uM incubated for 48 hrs by TEM analysis; conditions: not given

Row | SMILES | inhibition
77 | COc1cc(/C=C/C(=O)CC(=O)/C=C/c2ccc(O)c(OC)c2)ccc1O | Active

biological target: Amyloid-beta precursor protein (Homo sapiens) (UniProt P05067); assay: Inhibition of amyloid beta (1 to 42) (unknown origin) aggregation assessed as appearance of thinner aggregates at 50 uM incubated for 48 hrs by TEM imaging analysis; conditions: not given

Row | SMILES | inhibition
78 | COc1cc(/C=C/C(=O)CC(=O)/C=C/c2ccc(O)c(OC)c2)ccc1O | Active

biological target: Amyloid-beta precursor protein (Homo sapiens) (UniProt P05067); assay: Inhibition of amyloid beta (1 to 42) (unknown origin) aggregation assessed as reduction in size of amyloid-beta aggregates measured within 48 hrs by SEM imaging analysis; conditions: not given

Row | SMILES | inhibition
79 | COc1cc(/C=C/C(=O)CC(=O)/C=C/c2ccc(O)c(OC)c2)ccc1O | Active
